Experimental findings from ChEMBL document CHEMBL1148588, “Anthrax lethal factor protease inhibitors: synthesis, SAR, and structure-based 3D QSAR studies” (J Med Chem, 2006) are described below.

For this test, the target named is T1, Lethal factor (Bacillus anthracis, UniProt P15917).
T1 sequence (P15917 whole entry): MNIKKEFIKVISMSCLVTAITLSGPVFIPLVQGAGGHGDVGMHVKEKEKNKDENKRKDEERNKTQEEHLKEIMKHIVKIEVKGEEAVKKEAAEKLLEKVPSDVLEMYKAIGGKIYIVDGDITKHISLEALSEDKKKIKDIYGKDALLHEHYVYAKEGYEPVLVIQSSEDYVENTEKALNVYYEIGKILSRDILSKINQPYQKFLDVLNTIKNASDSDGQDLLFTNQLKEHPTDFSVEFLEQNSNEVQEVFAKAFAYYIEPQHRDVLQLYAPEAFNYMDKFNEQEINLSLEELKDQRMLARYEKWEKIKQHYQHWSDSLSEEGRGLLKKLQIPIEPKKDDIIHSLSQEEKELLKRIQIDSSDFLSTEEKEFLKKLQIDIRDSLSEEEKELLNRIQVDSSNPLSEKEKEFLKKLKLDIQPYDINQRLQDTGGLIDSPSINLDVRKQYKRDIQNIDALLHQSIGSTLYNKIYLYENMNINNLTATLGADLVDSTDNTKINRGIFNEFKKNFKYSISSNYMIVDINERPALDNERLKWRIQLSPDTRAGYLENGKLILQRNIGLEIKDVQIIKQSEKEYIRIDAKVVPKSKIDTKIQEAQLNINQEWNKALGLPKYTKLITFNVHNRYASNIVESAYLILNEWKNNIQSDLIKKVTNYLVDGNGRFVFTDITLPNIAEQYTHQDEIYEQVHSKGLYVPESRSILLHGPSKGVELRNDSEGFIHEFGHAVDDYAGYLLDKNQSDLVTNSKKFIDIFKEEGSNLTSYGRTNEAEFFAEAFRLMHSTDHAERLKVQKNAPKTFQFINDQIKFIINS
Description: Inhibitory activity against anthrax lethal factor metalloprotease.

SMILES strings stand for the structures. Bounds are passed on as bounds.

On to `CN1/C(=C/c2ccc(-c3ccc(Cl)cc3)o2)C(=O)NC1NC(=O)O` (stereo not given), for which the IC50 – broadly, the point on the concentration scale where inhibition reaches its midpoint – is over 100 µM and the “Log IC50” value is on record as over -4.
The compound `O=C(O)CN1C(=O)S/C(=C\c2ccc(-c3ccc(Cl)cc3[N+](=O)[O-])o2)C1=O` displayed an IC50 of 0.5 µM.
For the compound `O=C(O)CN1C(=O)S/C(=C\c2ccc(-c3cc(C(F)(F)F)ccc3Cl)o2)C1=O`, the IC50 turned out to be 5.9 µM. Against the preceding compound, the IC50 is about 12-fold higher.
With `O=C(O)CN1C(=O)/C(=C/c2ccc(-c3ccc(I)cc3)o2)SC1=S`, 5.6 µM corresponded to half-maximal inhibition (IC50).
